The source made the active and inactive calls. Cut-off read from the data, not from the text of the source: actives have a measured IC50 and inactives only a lower limit.
target: Envelope glycoprotein gp160 (Human immunodeficiency virus 1, UniProt Q6QLK5); assay: inhibitors of HIV fusion peptide binding, primary screen, biochemical, uHTS, fluorescence dequenching (AID 1986)
Sequence (Q6QLK5 whole entry, the tested form may be a part): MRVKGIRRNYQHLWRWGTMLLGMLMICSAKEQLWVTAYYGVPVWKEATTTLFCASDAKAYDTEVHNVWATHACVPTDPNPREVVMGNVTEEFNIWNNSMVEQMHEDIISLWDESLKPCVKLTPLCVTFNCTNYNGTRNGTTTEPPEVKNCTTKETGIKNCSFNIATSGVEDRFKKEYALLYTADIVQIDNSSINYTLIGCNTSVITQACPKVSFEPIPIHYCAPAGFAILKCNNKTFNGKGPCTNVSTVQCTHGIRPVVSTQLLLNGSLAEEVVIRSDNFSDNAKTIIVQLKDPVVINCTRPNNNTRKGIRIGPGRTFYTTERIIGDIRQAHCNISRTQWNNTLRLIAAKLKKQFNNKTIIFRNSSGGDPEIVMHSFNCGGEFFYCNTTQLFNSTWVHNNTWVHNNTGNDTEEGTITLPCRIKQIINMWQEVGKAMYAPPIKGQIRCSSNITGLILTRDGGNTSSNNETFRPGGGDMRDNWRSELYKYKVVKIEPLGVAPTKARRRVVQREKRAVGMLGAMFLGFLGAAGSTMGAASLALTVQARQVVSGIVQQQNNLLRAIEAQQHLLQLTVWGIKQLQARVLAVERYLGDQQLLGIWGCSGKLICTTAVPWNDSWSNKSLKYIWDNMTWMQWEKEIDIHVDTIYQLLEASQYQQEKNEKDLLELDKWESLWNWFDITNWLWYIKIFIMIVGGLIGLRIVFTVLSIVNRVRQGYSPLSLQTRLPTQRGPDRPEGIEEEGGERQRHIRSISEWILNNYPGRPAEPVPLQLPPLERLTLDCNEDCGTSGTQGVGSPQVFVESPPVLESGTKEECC

SMILES	IC50
COc1ccc(O)c(C(=O)c2cc(SCC(=O)O)c3nc4sc5c(c4c(=O)n3c2)CCCC5)c1	14.2 µM (active)
COc1cc(/C=C2/C(=O)NN(c3ccc(C)c(Cl)c3)C2=O)cc([N+](=O)[O-])c1O	30.2 µM (active)
O=C(CCN1C(=O)/C(=C\c2ccccc2F)SC1=S)Nc1ccc(C(=O)O)c(O)c1	15.1 µM (active)
O=[N+]([O-])c1cc(Cl)cc(/C=N/NC(=S)Nc2ccc(S(=O)(=O)N3CCOCC3)cc2)c1O	28.2 µM (active)
